Measured values as given in patent US9440930B2, “Substituted bicyclic dihydropyrimidinones and their use as inhibitors of neutrophil elastase activity” (Boehringer Ingelheim International GmbH, priority 2014, dated 2016).
In brackets after ≈: the same amount, converted by molar mass.

How the values were obtained:
[1] = target: T1, neutrophil elastase in human plasma (Homo sapiens, UniProt P08246); test: Neutrophil elastase inhibitory activity in human plasma; assay type: biochemical; details: zymosan-stimulated human plasma, substrate MeOSuc-Ala-Ala-Pro-Val-AMC 250 μM
T1 construct: The stimulated blood is centrifuged to generate the neutrophil elastase enriched plasma; from tissue; host or cells: plasma from zymosan-stimulated citrated whole blood of healthy human donors
T1 sequence (P08246 30-267): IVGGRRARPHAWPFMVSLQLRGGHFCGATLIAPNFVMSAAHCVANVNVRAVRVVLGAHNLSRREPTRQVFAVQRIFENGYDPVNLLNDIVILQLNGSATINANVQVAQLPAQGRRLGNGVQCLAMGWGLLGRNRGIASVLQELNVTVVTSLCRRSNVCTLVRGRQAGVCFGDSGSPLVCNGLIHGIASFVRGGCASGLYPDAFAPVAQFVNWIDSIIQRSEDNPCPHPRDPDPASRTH
Procedure: Assay for the Determination of Neutrophil Elastase Inhibitory Activity in Human Plasma
Citrated blood from human healthy donors is mixed with zymosan suspension and incubated at room temperature. This leads to the stimulation of neutrophils and the release of neutrophil elastase into the plasma. The stimulated blood is centrifuged to generate the neutrophil elastase enriched plasma.
• A single 45 ml blood sample is taken into a 50 ml tube containing citrate (3.13%, 5 mL) and the tube is gently inverted 4 times. • Immediately after blood sampling, zymosan working solution (5 mL) is added. • After the addition of zymosan working solution, the tubes are capped, mixed gently and incubated at 22° C. for 15 min on a shaker at 20 rpm. • Make 10 ml aliquots after the incubation time. • Centrifuge the 15 ml tubes at 800 g for 15 min at 4° C. in a Jouan centrifuge. • Harvest the plasma and make 1-5 ml aliquots. • Store the plasma at −80° C.
A dose response curve is generated to calculate the EC50 of the inhibitor. The analysis of the data is performed by the calculation of the percentage of fluorescence in the presence of the test compound compared to the fluorescence of the vehicle control after subtracting the background fluorescence: An inhibitor of the neutrophil elastase enzyme will give values between 100% control (no inhibition) and 0% control (complete inhibition).

[2] = Metabolic stability with human liver microsomes; assay type: in vitro ADME; details: pooled human liver microsomes, pH 7.6; human liver microsomes 1 mg/ml, 1 μM compound, 37° C., NADPH; read-out: t1/2 INVITRO
[3] = target: T2, Human neutrophil elastase (Homo sapiens, UniProt P08246); test: Human Neutrophil Elastase Assay; assay type: biochemical; details: substrate MeOSuc-Ala-Ala-Pro-Val-AMC 250 μM, pH 7.5, room temperature
T2 construct: purchased Calbiochem 324681
T2 sequence (P08246 30-247 limits assumed): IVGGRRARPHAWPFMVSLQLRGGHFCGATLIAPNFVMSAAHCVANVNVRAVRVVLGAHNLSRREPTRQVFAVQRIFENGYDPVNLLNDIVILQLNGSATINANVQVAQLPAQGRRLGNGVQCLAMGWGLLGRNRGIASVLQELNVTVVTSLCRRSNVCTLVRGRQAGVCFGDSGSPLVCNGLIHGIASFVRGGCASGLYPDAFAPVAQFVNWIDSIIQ
Source text: Human Neutrophil Elastase Assay

[4] = Aqueous solubility; assay type: physicochemical; details: McIlvaine buffer pH 6.8 containing 2.5% DMSO, kinetic from dmso stock, McIlvaine buffer pH 6.8, 2.5% DMSO, 24 h shaking
Procedure: Assay for Determination of Aqueous Solubility
Starting from a 10 min DMSO stock solution, aliquots are diluted with acetonitrile/water (1/1) and McIlvaine buffer pH 6.8, respectively. After 24 h of shaking, the solutions or suspensions are filtered and analyzed by LC-UV. The amount dissolved in buffer is compared to the amount dissolved in the acetonitrile/water (1/1) solution. Solubility is measured from 0.001 to 0.125 mg/ml at a DMSO concentration of 2.5%. If more than 90% of the compound is dissolved in buffer, the value is marked with “>”.

[5] = Drug transport across human Caco-2 cells; assay type: in vitro ADME; details: pH 7.2, 37° C.; for Papp A→B at 10 µM: apical-to-basal, read-out: PEAB; for Papp B→A at 10 µM: basal-to-apical, read-out: PEBA
Source text: Assay for Determination of Drug Transport Across Human Caco-2 Cells
The assay provides information on the potential of a compound to pass the cell membrane, on the extent of oral absorption as well as on whether the compound is actively transported by uptake and/or efflux transporters. For the measurement of permeability across polarized, confluent human cancer colon carcinoma cells 2 (Caco-2) cell monolayers grown on permeable filter supports are used as the in vitro absorption model.
Apparent permeability coefficients (PE) of the compounds across the Caco-2 monolayers are measured (pH 7.2, 37° C.) in apical-to-basal (AB) (absorptive) and basal-to-apical (BA) (secretory) transport direction. AB permeability (PEAB) represents drug absorption from the intestine into the blood and BA permeability (PEBA) drug secretion from the blood back into the intestine via both passive permeability as well as active transport mechanisms mediated by efflux and uptake transporters that are expressed on the Caco-2 cells. The compounds are assigned to permeability/absorption classes by comparison of the AB permeabilities with the AB permeabilities of reference compounds with known in vitro permeability and oral absorption in the human. Identical or similar permeabilities in both transport directions indicate passive permeation, vectorial permeability points to additional active transport mechanisms. […] Active transport is concentration-dependently saturable.
Caco-2 cells (1-2*10^5 cells/cm^2 area) are seeded on filter inserts (Costar transwell polycarbonate or PET filters, 0.4 μm pore size) and cultured (DMEM) for 10 to 25 days. Compounds are dissolved in appropriate solvent (like DMSO, 1-20 min stock solutions). Stock solutions are diluted with HTP-4 buffer (128.13 min NaCl, 5.36 min KCl, 1 mM MgSO4, 1.8 min CaCl2, 4.17 min NaHCO3, 1.19 min Na2HPO4×7H2O, 0.41 mM NaH2PO4×H2O, 15 min HEPES, 20 min glucose, pH 7.2) to prepare the transport solutions (typically 10 μM compound, final DMSO<=0.5%). The transport solution (TL) is applied to the apical or basolateral donor side for measuring A-B or B-A permeability (3 filter replicates), respectively. The receiver side contains HTP-4 buffer supplemented with 2% BSA. Samples are collected at the start and end of experiment from the donor and at various time intervals for up to 2 hours also from the receiver side for concentration measurement by LC-MS/MS or scintillation counting. Sampled receiver volumes are replaced with fresh receiver solution.

Row | Compound | EC50 [1] [nM] | half-life at 1 μM [2] [h] | IC50 [3] [nM] | solubility at 24 h [4] [µg/mL] | Papp A→B at 10 µM [5] [×10⁻⁶ cm/s] | Papp B→A at 10 µM [5] [×10⁻⁶ cm/s]
1 | CN1C(=O)N(c2cccc(C(F)(F)F)c2)C2=C(C(=O)CCC2)C1c1ccc(C#N)cc1[S+](C)[O-] (single isomer, unassigned) [Example 2.1A, 3-Methanesulfinyl-4-[3-methyl-2,5-dioxo-1-(3-trifluoromethyl-phenyl)-1,2,3,4,5,6,7,8-octahydro-quinazolin-4-yl]-benzonitrile] | < 1 | 0.967 | < 1 | 65 (≈ 133 µM) | 4.1 | 58
2 | CS(=O)(=O)c1cc(C#N)ccc1C1C2=C(CCCC2=O)N(c2cccc(C(F)(F)F)c2)C(=O)N1CC1COC1 (single isomer, unassigned) [Example 5A, 3-Methanesulfonyl-4-[3-oxetan-3-ylmethyl-2,5-dioxo-1-(3-trifluoromethyl-phenyl)-1,2,3,4,5,6,7,8-octahydro-quinazolin-4-yl]-benzonitrile] | 1 | 1.23 | 1 |  | 12 | 89
3 | CN1C(=O)N(c2cccc(C(F)(F)F)c2)C2=C(C(=O)CCC2)C1c1ccc(C#N)cc1S(=O)(=O)CCO (stereo not shown) [Example 4.3] | 2 | 2.17 | 1.1 | 62 (≈ 116 µM) | 10 | 120
4 | CN1C(=O)N(c2cccc(C(F)(F)F)c2)C2=C(C(=O)CCC2)C1c1ccc(C#N)cc1S(=O)(=O)CCCO (stereo not shown) [Example 4.4] | 2 | 1.67 | < 1 |  | 8.4 | 110
5 | CS(=O)(=O)c1cc(C#N)ccc1C1C2=C(CCCC2=O)N(c2cccc(C(F)(F)F)c2)C(=O)N1CCO (stereo not shown) [Example 6, 4-[3-(2-Hydroxy-ethyl)-2,5-dioxo-1-(3-trifluoromethyl-phenyl)-1,2,3,4,5,6,7,8-octahydro-quinazolin-4-yl]-3-methanesulfonyl-benzonitrile] | 1 | > 2.17 | < 1 | 72 (≈ 135 µM) | 3.9 | 68
